Our source for the GI50 and Activity values is ChEMBL document CHEMBL1139069, “Novel antiproliferative analogs of the Taq DNA polymerase inhibitor catalpol” (2007).

What all share (type): functional
In one experiment the test system is A2780. Kind of experiment: Antiproliferative activity against human A2780 cells after 48 hrs by SRB assay. The following applies: A2780, 48 h.
Experiment [1] relates to SW1573. Kind of experiment: Antiproliferative activity against human SW1573 cells after 48 hrs by SRB assay. The following applies: SW1573, 48 h.
Another experiment has as its system WiDr. Kind of experiment: Antiproliferative activity against human WiDr cells after 48 hrs by SRB assay.
Another experiment deals with T47D. Kind of experiment: Antiproliferative activity against human T47D cells after 48 hrs by SRB assay. Background: In SRB staining, fixed cells bind dye roughly in proportion to their protein.
For experiment [2], the system named is HBL-100. Kind of experiment: Antiproliferative activity against human HBL100 cells after 48 hrs by SRB assay. The following applies: HBL-100, 48 h.
In the next experiment the test system is HeLa. Put plainly: Antiproliferative activity against human HeLa cells after 48 hrs by SRB assay.
In experiment [3] the test system is HBL-100. Kind of experiment: Cell cycle arrest in human HBL100 cells assessed as accumulation at G0/G1 phase at 5 uM after 24 hrs by flow cytometry. A general note: A flow cytometer gives signals particle by particle.
The test system of experiment [4] is HBL-100. Put plainly: Cell cycle arrest in human HBL100 cells assessed as accumulation at S phase at 5 uM after 24 hrs by flow cytometry.
In experiment [5] the test system is HBL-100. Kind of experiment: Cell cycle arrest in human HBL100 cells assessed as accumulation at G2/M phase at 5 uM after 24 hrs by flow cytometry.
Experiment [6] relates to HBL-100. Kind of experiment: Cell cycle arrest in human HBL100 cells assessed as accumulation at G0/G1 phase at 10 uM after 24 hrs by flow cytometry.
The subject of experiment [7] is HBL-100. Put plainly: Cell cycle arrest in human HBL100 cells assessed as accumulation at S phase at 10 uM after 24 hrs by flow cytometry.
For experiment [8], the system named is HBL-100. Kind of experiment: Cell cycle arrest in human HBL100 cells assessed as accumulation at G2/M phase at 10 uM after 24 hrs by flow cytometry.
Experiment [9] has as its system SW1573. Kind of experiment: Cell cycle arrest in human SW1573 cells assessed as accumulation at G0/G1 phase at 5 uM after 24 hrs by flow cytometry.
Experiment [10] has as its system SW1573. Put plainly: Cell cycle arrest in human SW1573 cells assessed as accumulation at S phase at 5 uM after 24 hrs by flow cytometry.
In experiment [11] the test system is SW1573. Put plainly: Cell cycle arrest in human SW1573 cells assessed as accumulation at G2/M phase at 5 uM after 24 hrs by flow cytometry.
In experiment [12] the test system is SW1573. Kind of experiment: Cell cycle arrest in human SW1573 cells assessed as accumulation at G0/G1 phase at 10 uM after 24 hrs by flow cytometry.
The subject of experiment [13] is SW1573. Put plainly: Cell cycle arrest in human SW1573 cells assessed as accumulation at S phase at 10 uM after 24 hrs by flow cytometry.
Experiment [14] relates to SW1573. Put plainly: Cell cycle arrest in human SW1573 cells assessed as accumulation at G2/M phase at 10 uM after 24 hrs by flow cytometry.

One may read the GI50 as the concentration at which growth is held to half of that of the control. A low value points to greater sensitivity of the cells. For `CC(C)(C)[Si](OC[C@H]1O[C@H](O[C@@H]2OC=C[C@H]3[C@H](O[Si](c4ccccc4)(c4ccccc4)C(C)(C)C)[C@@H]4O[C@]4(CO[Si](c4ccccc4)(c4ccccc4)C(C)(C)C)[C@@H]23)[C@H](O)[C@@H](O)[C@@H]1O)(c1ccccc1)c1ccccc1`, the GI50 came to 2.4 µM in the experiment on A2780; 1.8 µM in the experiment with SW1573 [1]; 2 µM in the experiment with WiDr; 2.7 µM with T47D; 2.4 µM in the experiment on HBL-100 [2]; 2.1 µM in the experiment with HeLa. Moreover, the Activity with HBL-100 [3] is recorded as 56%; in the experiment on HBL-100 [4] it was 32%; in the experiment with HBL-100 [5], 12%; in the experiment on HBL-100 [6], 59%; in the experiment with HBL-100 [7] it was 30%; in the experiment on HBL-100 [8], 11%. Moreover, the Activity in the experiment on SW1573 [9] worked out at 58%; in the experiment with SW1573 [10], 29%; in the experiment on SW1573 [11], 13%; with SW1573 [12], 59%; in the experiment with SW1573 [13], 37%; in the experiment on SW1573 [14], 4%.
As to `CC(=O)OC[C@H]1O[C@H](O[C@@H]2OC=C[C@H]3[C@H](OC(C)=O)[C@@H]4O[C@]4(COC(C)=O)[C@@H]23)[C@H](OC(C)=O)[C@@H](OC(C)=O)[C@@H]1OC(C)=O`, the GI50 is 60 µM with A2780, more than 100 µM in the experiment on SW1573 [1], more than 100 µM in the experiment on WiDr and more than 100 µM in the experiment with T47D.
As to `O=C(OC[C@H]1O[C@H](O[C@@H]2OC=C[C@H]3[C@H](OC(=O)c4ccccc4)[C@@H]4O[C@]4(COC(=O)c4ccccc4)[C@@H]23)[C@H](OC(=O)c2ccccc2)[C@@H](OC(=O)c2ccccc2)[C@@H]1OC(=O)c1ccccc1)c1ccccc1`, the GI50 with A2780, in the experiment on SW1573 [1], with WiDr, in the experiment with T47D, with HBL-100 [2] and in the experiment on HeLa was more than 100 µM each time.
In the case of `CC(C)(C)[Si](C)(C)OC[C@]12O[C@H]1[C@@H](O)[C@@H]1C=CO[C@@H](O[C@H]3O[C@H](CO)[C@@H](O)[C@H](O)[C@H]3O)[C@@H]12`, the GI50 in the experiment with A2780 stood at 36 µM; with SW1573 [1], 88 µM; in the experiment on WiDr it was 81 µM; with T47D, 87 µM; with HBL-100 [2], 52 µM; in the experiment on HeLa, 77 µM.
As to `OC[C@H]1O[C@@H](O[C@@H]2OC=C[C@H]3[C@H](O)[C@@H]4O[C@]4(CO)[C@@H]23)[C@H](O)[C@@H](O)[C@@H]1O` [CATALPOL], the GI50 in the experiment on A2780, in the experiment with SW1573 [1], with WiDr and with T47D was more than 100 µM each time.
Consider `C[C@]1(O)C[C@@H](O)[C@]2(O)C=CO[C@@H](O[C@H]3O[C@H](CO)[C@@H](O)[C@H](O)[C@H]3O)[C@@H]21` [HARPAGIDE], for which the GI50 in the experiment on A2780, with SW1573 [1], in the experiment on WiDr and in the experiment on T47D was more than 100 µM throughout.
As for `CC(C)(C)[Si](C)(C)OC[C@H]1O[C@H](O[C@@H]2OC=C[C@H]3[C@H](O)[C@@H]4O[C@]4(CO[Si](C)(C)C(C)(C)C)[C@@H]23)[C@H](O)[C@@H](O)[C@@H]1O`, the concentration for 50% growth inhibition (GI50) with A2780 is 2.6 µM; in the experiment on SW1573 [1], 4.8 µM; in the experiment with WiDr, 2.7 µM; with T47D, 3.6 µM; with HBL-100 [2], 2.8 µM; with HeLa, 3.6 µM. In addition, the Activity with HBL-100 [3] worked out at 54%; in the experiment with HBL-100 [4], 35%; in the experiment with HBL-100 [5], 11%; in the experiment with HBL-100 [6] it was 51%; in the experiment with HBL-100 [7], 30%; in the experiment with HBL-100 [8], 19%. Further, the Activity with SW1573 [9] came to 49%; with SW1573 [10], 37%; with SW1573 [11], 14%; in the experiment with SW1573 [12] it was 63%; with SW1573 [13], 20%; in the experiment on SW1573 [14], 17%.
As for `CC(C)(C)[Si](OC[C@H]1O[C@H](O[C@@H]2OC=C[C@H]3[C@H](O)[C@@H]4O[C@]4(CO[Si](c4ccccc4)(c4ccccc4)C(C)(C)C)[C@@H]23)[C@H](O)[C@@H](O)[C@@H]1O)(c1ccccc1)c1ccccc1`, the GI50 with A2780 was 2.4 µM; in the experiment with SW1573 [1] it was 2.7 µM; in the experiment on WiDr, 3.4 µM; with T47D, 4.1 µM; in the experiment on HBL-100 [2] it was 2.7 µM; with HeLa, 4.4 µM. Moreover, the Activity in the experiment on HBL-100 [3] came to 52%; with HBL-100 [4] it was 33%; in the experiment on HBL-100 [5] it was 15%; in the experiment on HBL-100 [6] it was 59%; with HBL-100 [7], 28%; in the experiment with HBL-100 [8], 13%. Further, the Activity in the experiment with SW1573 [9] stood at 54%; in the experiment on SW1573 [10], 32%; in the experiment on SW1573 [11], 14%; in the experiment with SW1573 [12] it was 61%; in the experiment on SW1573 [13] it was 28%; with SW1573 [14], 11%.
